Earlier results, collected in patent US10194693B2, “Aerosol generating device” (FONTEM HOLDINGS 1 B.V., priority 2013, dated 2019).

CN1CCCC1c1cccnc1 (centres unmarked) [nicotine]
time to peak increments of plasma nicotine concentration (smoking a cigarette): ≤ 10 min | peak increments of plasma nicotine concentration (smoking a single cigarette): 5 to 30 ng/mL
